# Measured values: US20050032873A1, “3-Amino chroman and 2-amino tetralin derivatives” (Wyeth, priority 2003, published 2005)
# Counter-ions that a name gives are not always drawn.
row,Structure (SMILES),melting point
1,"NC(=O)c1ccc(F)c2c1C[C@@H](N(CCCCc1c[nH]c3ccc(F)cc13)C1CCC1)CO2 (as salt: hydrochloride) [Compound 83a, (3R)-3-{cyclobutyl[4-(5-fluoro-1H-indol-3-yl)butyl]amino}-8-fluorochromane-5-carboxamide]",128 °C (dec.)
2,"NC(=O)c1ccc(F)c2c1CC(NCCCn1ccc3ccccc31)CO2 (centres unmarked) (as salt: hydrochloride) [Compound 184, 8-Fluoro-3-{[3-(1H-indol-1-yl)propyl]amino}chromane-5-carboxamide]",155 to 156 °C
3,"NC(=O)c1ccc(F)c2c1CC(NCCCc1c[nH]c3ccc(F)cc13)CO2 (single isomer, unassigned; (-)) (as salt: hydrochloride) [Compound 1b, (−)-8-fluoro-3-{[3-(5-fluoro-1H-indol-3-yl)propyl]amino}chromane-5-carboxamide]",87 °C (dec.)
4,"CCCN(CCCc1c[nH]c2ccc(F)cc12)C1COc2cccc(OC)c2C1 (centres unmarked) (as salt: hydrochloride) [Compound 23, [3-(5-fluoro-1H-indol-3-yl)propyl]-N-(5-methoxy-chroman-3-yl)propylamine]",117 to 120 °C
5,"CCCN(CCCc1csc2ccc(F)cc12)C1COc2cccc(OC)c2C1 (centres unmarked) (as salt: hydrochloride) [Compound 19, N-[3-(5-fluoro-1-benzothien-3-yl)propyl]-5-methoxy-N-propylchroman-3-amine]",78 °C (dec.)
6,"COc1cccc2c(CCCCN(C3CCC3)C3COc4c(F)ccc(C(N)=O)c4C3)coc12 (centres unmarked) (as salt: hydrochloride) [Compound 171, 3-{cyclobutyl[4-(7-methoxy-1-benzofuran-3-yl)butyl]amino}-8-fluorochromane-5-carboxamide]",122 to 127 °C (dec.)
7,"CCN(CCCCc1c[nH]c2ccc(F)cc12)C1COc2c(C(N)=O)ccc(F)c2C1 (centres unmarked) (as salt: hydrochloride) [Compound 127, 3-{ethyl[4-(5-fluoro-1H-indol-3-yl)butyl]amino}-5-fluorochromane-8-carboxamide]",112 °C (dec.)
8,"NC(=O)c1ccc(F)c2c1CC(N(CCCc1c[nH]c3ccc(F)cc13)CC1CC1)CO2 (centres unmarked) (as salt: hydrochloride) [Compound 5, 3-{(cyclopropylmethyl)[3-(5-fluoro-1H-indol-3-yl)propyl]amino}-8-fluorochromane-5-carboxamide]",121 °C (dec.)
9,"CCCN(CCCc1c[nH]c2ccc(F)cc12)C1COc2c(F)ccc(C(N)=O)c2C1 (centres unmarked) (as salt: hydrochloride) [Compound 2, 8-fluoro-3-{[3-(5-fluoro-1H-indol-3-yl)propyl](propyl)amino}chromane-5-carboxamide]",125 °C (dec.)
10,"CCCN(C1COc2cccc(OC)c2C1)[C@H]1CC[C@H](c2c[nH]c3ccc(F)cc32)CC1 (relative stereo) (as salt: hydrochloride) [Compound 183, trans-N-[4-(5-fluoro-1H-indol-3-yl)cyclohexyl]-5-methoxy-N-propylchroman-3-amine]",159 °C (dec.)
11,"CCN(CCCc1c[nH]c2ccc(F)cc12)C1COc2cccc(OC)c2C1 (centres unmarked) (as salt: hydrochloride) [Compound 31, N-ethyl-N-[3-(5-fluoro-1H-indol-3-yl)propyl]-5-methoxychroman-3-amine]",91.2 °C (dec.)
12,"CCN(CCCCc1coc2ccccc12)C1COc2cccc(OC)c2C1 (centres unmarked) (as salt: hydrochloride) [Compound 22, N-[4-(1-benzofuran-3-yl)butyl]-N-ethyl-N-(5-methoxy-3,4-dihydro-2H-chromen-3-yl)amine]",152 to 154 °C
13,"CCCN(CCCc1c[nH]c2ccc(Cl)cc12)C1COc2c(F)ccc(C(N)=O)c2C1 (centres unmarked) (as salt: hydrochloride) [Compound 116, 3-[[3-(5-chloro-1H-indol-3-yl)propyl](propyl)amino]-8-fluorochromane-5-carboxamide]",148 to 154 °C (dec.)
14,"NC(=O)c1ccc(F)c2c1CC(N(CCCCc1c[nH]c3ccc(F)cc13)C1CCC1)CO2 (centres unmarked) (as salt: hydrochloride) [Compound 83, 3-{cyclobutyl[4-(5-fluoro-1H-indol-3-yl)butyl]amino}-8-fluorochromane-5-carboxamide]",122 °C (dec.)
15,"N#Cc1ccc2[nH]cc(CCCN(C3CCC3)[C@H]3COc4c(F)ccc(C(N)=O)c4C3)c2c1 (as salt: hydrochloride) [Compound 97b, (3R)-3-[[3-(5-cyano-1H-indol-3-yl)propyl](cyclobutyl)amino]-8-fluorochromane-5-carboxamide]",166 to 171 °C (dec.)
16,"NC(=O)c1ccc(F)c2c1CC(NCCCc1c[nH]c3ccc(Cl)cc13)CO2 (centres unmarked) (as salt: hydrochloride) [Compound 114, 3-{[3-(5-chloro-1H-indol-3-yl)propyl]amino}-8-fluorochromane-5-carboxamide]",218 to 221 °C
17,"CCCN(CCc1coc2c(OC)cccc12)C1COc2c(F)ccc(C(N)=O)c2C1 (centres unmarked) (as salt: hydrochloride) [Compound 158, 8-fluoro-3-[[2-(7-methoxy-1-benzofuran-3-yl)ethyl](propyl)amino]chromane-5-carboxamide]",125 to 132 °C
18,"CCCN(C1COc2cccc(OC)c2C1)[C@H]1CC[C@@H](c2c[nH]c3ccc(F)cc32)CC1 (relative stereo) (as salt: hydrochloride) [Compound 182, cis-N-[4-(5-fluoro-1H-indol-3-yl)cyclohexyl]-5-methoxy-N-propylchroman-3-amine]",148 °C (dec.)
19,"NC(=O)c1ccc(F)c2c1CC(N(CCCc1c[nH]c3c(Cl)cccc13)CC1CC1)CO2 (centres unmarked) (as salt: hydrochloride) [Compound 112, 3-[[3-(7-chloro-1H-indol-3-yl)propyl](cyclopropylmethyl)amino]-8-fluorochromane-5-carboxamide]",147 to 155 °C (dec.)
20,"CCN(CCCc1coc2c(OC)cccc12)C1COc2c(F)ccc(C(N)=O)c2C1 (centres unmarked) (as salt: hydrochloride) [Compound 162, 3-{ethyl[3-(7-methoxy-1-benzofuran-3-yl)propyl]amino}-8-fluorochromane-5-carboxamide]",125 to 128 °C
21,"CCCN(CCCc1c[nH]c2ccc(OC)cc12)C1COc2c(F)ccc(C(N)=O)c2C1 (centres unmarked) (as salt: hydrochloride) [Compound 106, 8-fluoro-3-[[3-(5-methoxy-1H-indol-3-yl)propyl](propyl)amino]chromane-5-carboxamide]",145 to 152 °C (dec.)
22,"CCN(CCCc1c[nH]c2c(Cl)cccc12)C1COc2c(F)ccc(C(N)=O)c2C1 (centres unmarked) (as salt: hydrochloride) [Compound 110, 3-[[3-(7-chloro-1H-indol-3-yl)propyl](ethyl)amino]-8-fluorochromane-5-carboxamide]",146 to 152 °C (dec.)

# Results, then the compound that gave them:
row,melting point,Structure (SMILES)
1,110 °C (dec.),"CCCN(CCCCc1c[nH]c2ccc(F)cc12)C1COc2c(F)ccc(C(=O)NC)c2C1 (centres unmarked) (as salt: hydrochloride) [Compound 93, 8-fluoro-3-[[4-(5-fluoro-1H-indol-3-yl)butyl](propyl)amino]-N-methylchromane-5-carboxamide]"
2,162 to 168 °C,"C[C@@H](CCN(C1CCC1)[C@@H]1COc2c(F)ccc(C(N)=O)c2C1)c1c[nH]c2ccc(F)cc12 (as salt: hydrochloride) [Compound 153b, (3S)-3-{cyclobutyl[(3S)-3-(5-fluoro-1H-indol-3-yl)butyl]amino}-8-fluorochromane-5-carboxamide]"
3,136 °C (dec.),"O=C(Nc1ccccc1)c1ccc(F)c2c1CC(N(CCCc1c[nH]c3ccc(F)cc13)C1CCC1)CO2 (centres unmarked) (as salt: hydrochloride) [Compound 70, 3-{cyclobutyl[3-(5-fluoro-1H-indol-3-yl)propyl]amino}-8-fluoro-N-phenylchromane-5-carboxamide]"
4,130 °C (dec.),"CNC(=O)c1ccc(F)c2c1CC(NCCCCc1c[nH]c3ccc(F)cc13)CO2 (centres unmarked) (as salt: hydrochloride) [Compound 92, 8-fluoro-3-{[4-(5-fluoro-1H-indol-3-yl)butyl]amino}-N-methylchromane-5-carboxamide]"
5,160 to 168 °C (dec.),"C[C@@H](CCN(C1CCC1)[C@H]1COc2c(F)ccc(C(N)=O)c2C1)c1c[nH]c2ccc(F)cc12 (as salt: hydrochloride) [Compound 153a, (3R)-3-{cyclobutyl[(3S)-3-(5-fluoro-1H-indol-3-yl)butyl]amino}-8-fluorochromane-5-carboxamide]"
6,150 to 158 °C (dec.),"NC(=O)c1ccc(F)c2c1CC(N(CCCc1c[nH]c3ccc(Cl)cc13)CC1CC1)CO2 (centres unmarked) (as salt: hydrochloride) [Compound 118, 3-[[3-(5-chloro-1H-indol-3-yl)propyl](cyclopropylmethyl)amino]-8-fluorochromane-5-carboxamide]"
7,219 °C (dec.),"COC(=O)c1ccc(F)c2c1CC(NCCCc1c[nH]c3ccc(F)cc13)CO2 (centres unmarked) (as salt: hydrochloride) [Compound 10, Methyl 8-fluoro-3-{[3-(5-fluoro-1H-indol-3-yl)propyl]amino}chromane-5-carboxylate]"
8,168 to 174 °C (dec.),"C[C@H](CCN(C1CCC1)[C@H]1COc2c(F)ccc(C(N)=O)c2C1)c1c[nH]c2ccc(F)cc12 (as salt: hydrochloride) [Compound 152a, (3R)-3-{cyclobutyl[(3R)-3-(5-fluoro-1H-indol-3-yl)butyl]amino}-8-fluorochromane-5-carboxamide]"
9,135 °C (dec.),"CCN(C(C)CCc1c[nH]c2ccc(F)cc12)C1COc2c(F)ccc(C(N)=O)c2C1 (single isomer, unassigned; (+)) (as salt: hydrochloride) [Compound 16b, (+)-3-{ethyl[3-(5-fluoro-1H-indol-3-yl)-1-methylpropyl]amino}-8-fluorochromane-5-carboxamide]"
10,89 °C (dec.),"COc1cccc2c1CC(N(CCCCc1c[nH]c3ccc(F)cc13)C1CCC1)CO2 (centres unmarked) (as salt: hydrochloride) [Compound 36, N-cyclobutyl-N-[4-(5-fluoro-1H-indol-3-yl)butyl]-N-(5-methoxy-3,4-dihydro-2H-chromen-3-yl)amine]"
